Key:
Assay in all cases: IA-DTB cysteine engagement
Type in all cases: binding
[1] = target: T1, MMS19_C819 (Homo sapiens, UniProt Q96T76); conditions: 22Rv1 cells, 20 μM probe, 1 h, relative to DMSO
T1 construct: endogenous in cells; host or cells: 22Rv1
T1 sequence (Q96T76 1-1030): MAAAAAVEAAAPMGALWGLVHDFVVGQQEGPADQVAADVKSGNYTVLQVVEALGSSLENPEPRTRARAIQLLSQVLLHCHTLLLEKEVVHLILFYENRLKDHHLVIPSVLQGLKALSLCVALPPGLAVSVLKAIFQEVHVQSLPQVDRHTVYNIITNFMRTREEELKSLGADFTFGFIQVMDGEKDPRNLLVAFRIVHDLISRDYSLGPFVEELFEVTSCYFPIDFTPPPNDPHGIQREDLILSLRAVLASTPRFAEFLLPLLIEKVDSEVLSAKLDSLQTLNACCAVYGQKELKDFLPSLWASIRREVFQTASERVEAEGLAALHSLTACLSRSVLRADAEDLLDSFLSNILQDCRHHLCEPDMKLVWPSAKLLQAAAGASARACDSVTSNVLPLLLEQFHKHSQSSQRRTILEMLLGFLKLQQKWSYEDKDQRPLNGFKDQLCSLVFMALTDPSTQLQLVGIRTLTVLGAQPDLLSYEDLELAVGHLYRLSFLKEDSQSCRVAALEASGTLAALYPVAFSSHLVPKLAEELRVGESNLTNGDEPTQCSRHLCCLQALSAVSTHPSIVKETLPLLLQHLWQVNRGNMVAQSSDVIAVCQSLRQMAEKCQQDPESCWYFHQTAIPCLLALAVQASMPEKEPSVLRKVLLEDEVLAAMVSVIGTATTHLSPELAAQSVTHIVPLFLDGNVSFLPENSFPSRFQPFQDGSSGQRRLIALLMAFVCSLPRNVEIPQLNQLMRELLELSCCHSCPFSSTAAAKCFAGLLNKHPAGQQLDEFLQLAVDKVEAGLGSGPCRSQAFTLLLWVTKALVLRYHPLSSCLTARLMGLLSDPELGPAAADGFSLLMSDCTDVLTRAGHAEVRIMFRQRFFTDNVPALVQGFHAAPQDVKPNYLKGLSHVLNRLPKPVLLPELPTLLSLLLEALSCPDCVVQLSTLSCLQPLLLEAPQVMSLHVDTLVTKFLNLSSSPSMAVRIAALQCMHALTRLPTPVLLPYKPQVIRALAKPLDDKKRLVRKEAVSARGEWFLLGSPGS
How it was run: (§1)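 In-situ probe treatment of cells; lysate 2 mg/mL, IA-DTB 1 h RT; MeOH/CHCl3 precipitation, DTT/iodoacetamide, trypsin; streptavidin enrichment; TMT labeling, high-pH fractionation. Ratio = TMT reporter intensity / mean DMSO channels, median-normalized.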

[2] = target: T2, BCKDK_C118 (Homo sapiens, UniProt O14874); conditions: 22Rv1 cells, 20 μM probe, 1 h, relative to DMSO
T2 construct: endogenous in cells; host or cells: 22Rv1
How it was run: as §1

[3] = target: T3, NSUN2_C271 (Homo sapiens, UniProt Q08J23); conditions: 22Rv1 cells, relative to DMSO; for % engagement NSUN2_C271: 20 μM probe, 1 h; for % engagement NSUN2_271: 5 μM probe, 1 h (FIG. 5B)
T3 construct: endogenous in cells; host or cells: 22Rv1
T3 sequence (Q08J23 whole entry): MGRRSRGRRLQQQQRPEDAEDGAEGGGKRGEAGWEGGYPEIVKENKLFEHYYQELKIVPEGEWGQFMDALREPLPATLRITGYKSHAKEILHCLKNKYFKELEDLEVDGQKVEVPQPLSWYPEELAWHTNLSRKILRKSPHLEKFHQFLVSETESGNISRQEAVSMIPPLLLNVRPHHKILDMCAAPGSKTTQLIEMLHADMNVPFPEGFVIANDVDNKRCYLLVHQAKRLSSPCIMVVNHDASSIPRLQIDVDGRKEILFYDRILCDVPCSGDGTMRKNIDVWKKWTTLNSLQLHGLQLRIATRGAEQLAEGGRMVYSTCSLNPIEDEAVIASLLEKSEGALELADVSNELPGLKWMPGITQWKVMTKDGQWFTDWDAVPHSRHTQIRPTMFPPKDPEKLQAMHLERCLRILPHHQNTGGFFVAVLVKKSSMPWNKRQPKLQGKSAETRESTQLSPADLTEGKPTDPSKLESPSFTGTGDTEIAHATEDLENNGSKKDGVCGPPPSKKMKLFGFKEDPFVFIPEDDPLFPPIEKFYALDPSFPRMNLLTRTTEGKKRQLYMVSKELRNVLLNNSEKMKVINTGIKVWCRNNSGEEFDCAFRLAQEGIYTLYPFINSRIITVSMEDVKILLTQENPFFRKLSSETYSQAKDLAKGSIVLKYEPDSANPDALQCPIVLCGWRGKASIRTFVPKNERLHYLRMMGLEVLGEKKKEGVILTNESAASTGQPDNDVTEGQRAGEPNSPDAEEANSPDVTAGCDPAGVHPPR
How it was run: as §1

[4] = target: T4, LAPTM4A_C23 (Homo sapiens, UniProt Q15012); conditions: 22Rv1 cells, 20 μM probe, 1 h, relative to DMSO
T4 construct: endogenous in cells; host or cells: 22Rv1
How it was run: as §1

[5] = target: T5, BCKDK_C111 (Homo sapiens, UniProt O14874); conditions: 22Rv1 cells, 20 μM probe, 1 h, relative to DMSO
T5 construct: endogenous in cells; host or cells: 22Rv1
How it was run: as §1

| Compound | % engagement MMS19_C819 [1] [%] | % engagement BCKDK_C118 [2] [%] | % engagement NSUN2_C271 [3] [%] | % engagement LAPTM4A_C23 [4] [%] | % engagement BCKDK_C111 [5] [%] | % engagement NSUN2_271 [3] [%] |
| --- | --- | --- | --- | --- | --- | --- |
| C=CC(=O)N1C[C@@H](c2ccc(Br)cc2)[C@H]1C(=O)Nc1cccc2cccnc12 [MY-1A, (2S,3R)-1-acryloyl-3-(4-bromophenyl)-N-(quinolin-8-yl)azetidine-2-carboxamide] | 1.5 | 55.5 | 42.25 | 67 | 17.25 | – |
| CC#CC(=O)N1C[C@H](c2ccc(Br)cc2)[C@@H]1C(=O)Nc1cccc2cccnc12 [MY-45B, (2R,3S)-3-(4-bromophenyl)-1-(but-2-ynoyl)-N-(quinolin-8-yl)azetidine-2-carboxamide] | – | – | – | – | – | −13.13 |

Next, values leading:

| % engagement MMS19_C819 [1] [%] | % engagement BCKDK_C118 [2] [%] | % engagement NSUN2_C271 [3] [%] | % engagement LAPTM4A_C23 [4] [%] | % engagement BCKDK_C111 [5] [%] | % engagement NSUN2_271 [3] [%] | Compound |
| --- | --- | --- | --- | --- | --- | --- |
| 90 | 57.75 | 88.75 | 54.5 | 14.5 | 94.50 | C=CC(=O)N1C[C@H](c2ccc(Br)cc2)[C@@H]1C(=O)Nc1cccc2cccnc12 [MY-1B, (2R,3S)-1-acryloyl-3-(4-bromophenyl)-N-(quinolin-8-yl)azetidine-2-carboxamide] |
| 11 | 78.5 | −11 | 72 | 76.75 | – | C=CC(=O)N1C[C@H](c2ccc(Br)cc2)[C@H]1C(=O)Nc1cccc2cccnc12 [MY-3B, (2S,3S)-1-acryloyl-3-(4-bromophenyl)-N-(quinolin-8-yl)azetidine-2-carboxamide] |
| −10 | 43 | −8.25 | 48 | 19.5 | – | C=CC(=O)N1C[C@H](c2ccc(Br)cc2)[C@H]1C(=O)Nc1cccc2cccnc12 [MY-3A, (2S,3S)-1-acryloyl-3-(4-bromophenyl)-N-(quinolin-8-yl)azetidine-2-carboxamide] |

— patent US20250034216A1, “STEREOSELECTIVE COVALENT LIGANDS FOR ONCOGENIC AND IMMUNOLOGICAL PROTEINS” (The Scripps Research Institute, priority 2021, published 2025)
